Data set [1] can be described thus: Double blind randomized clinical assay in women with low urinary tract infection treated with nitrofurantoin. It is filed as in vivo, human. From the text:
Patients were ambulatory in the Urology Polyclinical of the Clinical Hospital of the University of Chile (HCUCH). Those that fulfilled the inclusion and exclusion criteria signed an informed consent to participate in the study. Patients were distributed randomly in the two following groups:
During the treatment, under medical and nursery checkup registers of adverse reactions, hemogram, biochemical profile, urocultive and determination of plasma antioxidant capacity were made.

For data set [2] the following is noted: cited from earlier work.

The structures appear in SMILES notation.

Consider `O=C1CN(/N=C/c2ccc([N+](=O)[O-])o2)C(=O)N1` [nitrofurantoin, N-(5-nitro-2-furfuriliden)-1-aminohidantoin], for which, in data set [1] (human, in vivo), the “Biochemical profile values compared with reference values” is on record as “not statistically different from reference values” and the “Hemogram values compared with reference values” is recorded as “not statistically different from reference values”. Besides, the “Patients passed away because of the gastrointestinal adverse reactions” value in data set [1] (received only nitrofurantoin, 100 mg every 12 hours, 15 patients per group) is recorded as 2 patients. In data set [2] (after oral administration), the Absorption result is on record as “almost completely absorbed”. Moreover, in data set [2] (oral), the Maximum plasma concentrations result is given as “about 1 mg/L”. The Plasma half-life in data set [2] (oral, prolonged in renal insufficiency) was 20 to 30 min.

(Values after US8852654B2 (priority 2011, dated 2014).)
